Test results reported in patent US20250367209A1 (SOUTHERN RESEARCH INSTITUTE, priority 2022, published 2025).
Entries after “also recorded” stand apart in the source; their conditions may differ.

Key:
97 kinases = assay: Eurofins DiscoverX ScanEDGE kinase panel; assay type: biochemical; details: compound no. 69 at 3 μM; saracatinib stock 30 μM = 1000× testing concentration; activity = <35% of control
Source text: 69 and compound no. […] Since Fyn was not included in that panel, a custom panel was completed for Fyn kinase activity.

[1] = Phase IIa, van Dyck et al. 2019; cited from earlier work

## CN1CCN(CCOc2cc(OC3CCOCC3)c3c(Nc4c(Cl)ccc5c4OCO5)ncnc3c2)CC1 [saracatinib, reference compound]
97 kinases
  kinase inhibition, panel of 97 kinases: inhibited several Src family kinases; also recorded: inhibits Src, Fyn, Abl, and EGFR kinase activity
[1]
  clinical benefit in AD: showed no clinical benefit in AD at a tolerable dose
